Experimental data taken from patent US20130217664A1, “NOVEL COMPOUNDS USEFUL FOR THE TREATMENT OF DEGENERATIVE AND INFLAMMATORY DISEASES” (priority 2012, published 2013).

Columns and labels:
[1] = target: T1, human JAK2 (Homo sapiens, UniProt O60674); assay: JAK2 inhibition assay (polyGT substrate / Ulight-JAK1 peptide); type: biochemical; settings: recombinant human JAK2 catalytic domain; polyGT or Ulight-JAK1 peptide assay
T1 construct: catalytic domain (amino acids 808-1132; catalog number PV4210); GST; purchased Invitrogen PV4210
T1 sequence (O60674 808-1132): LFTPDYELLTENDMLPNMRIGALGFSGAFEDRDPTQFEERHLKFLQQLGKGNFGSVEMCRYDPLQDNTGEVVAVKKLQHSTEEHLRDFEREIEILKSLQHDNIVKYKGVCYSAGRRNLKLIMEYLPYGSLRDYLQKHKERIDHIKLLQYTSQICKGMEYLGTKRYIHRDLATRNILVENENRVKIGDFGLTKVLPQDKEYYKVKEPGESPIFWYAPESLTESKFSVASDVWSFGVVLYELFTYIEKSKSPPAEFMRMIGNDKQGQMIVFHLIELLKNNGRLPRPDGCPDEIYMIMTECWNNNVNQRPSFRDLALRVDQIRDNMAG
Experimental: 1.2 JAK2 Inhibition Assay
1.2.1 JAK2 Assay polyGT Substrate
0.025 mU of JAK2 is incubated with 2.5 μg polyGT substrate (Sigma catalog number P0275) in kinase reaction buffer (5 mM MOPS pH 7.5, 9 mM MgAc, 0.3 mM EDTA, 0.06% Brij and 0.6 mM DTT, 1 μM non-radioactive ATP, 0.25 μCi ^33P-gamma-ATP (GE Healthcare, catalog number AH9968) final concentrations) with or without 5 μL containing test compound or vehicle (DMSO, 1% final concentration), in a total volume of 25 μL, in a polypropylene 96-well plate (Greiner, V-bottom). After 90 min at 30° C., reactions are stopped by adding of 25 μL/well of 150 mM phosphoric acid. […] Plates are washed 6 times with 300 μL per well of a 75 mM phosphoric acid solution and the bottom of the plates is sealed. 40 μL/well of Microscint-20 is added, the top of the plates is sealed and readout is performed using the Topcount (Perkin Elmer). Kinase activity is calculated by subtracting counts per min (cpm) obtained in the presence of a positive control inhibitor (10 μM staurosporine) from cpm obtained in the presence of vehicle. The ability of a test compound to inhibit this activity is determined as:
Percentage inhibition=((cpm determined for sample with test compound present−cpm determined for sample with positive control inhibitor)divided by(cpm determined in the presence of vehicle−cpm determined for sample with positive control inhibitor))*100.
Dose dilution series are prepared for the compounds enabling the testing of dose-response effects in the JAK2 assay and the calculation of the IC50 for each compound.
1.2.2 JAK2 Ulight-JAK1 Peptide Assay
After 60 min at room temperature, reactions were stopped by adding 20 μL/well of detection mixture (1× detection buffer (Perkin Elmer, catalog number CR97-100C), 0.5 nM Europium-anti-phosphotyrosine (PT66) (Perkin Elmer, catalog number AD0068), 10 mM EDTA). […] Kinase activity was calculated by subtracting relative fluorescence units (RFU) obtained in the presence of a positive control inhibitor (10 μM staurosporine) from RFU obtained in the presence of vehicle. The ability of a test compound to inhibit this activity was determined as:
Percentage inhibition=((RFU determined for sample with test compound present−RFU determined for sample with positive control inhibitor)divided by(RFU determined in the presence of vehicle−RFU determined for sample with positive control inhibitor))*100.
Dose dilution series are prepared for compound enabling the testing of dose-response effects in the JAK2 assay and the calculation of the IC50 for the compound. Each compound is routinely tested at concentration of 20 μM followed by a 1/5 serial dilution, 10 points in a final concentration of 1% DMSO. […] The data are expressed as the average IC50 from the assays±standard error of the mean.

[2] = target: T2, human JAK1 (Homo sapiens, UniProt P23458); assay: JAK1 inhibition assay (polyGT substrate / Ulight-JAK1 peptide); type: biochemical; settings: recombinant human JAK1 catalytic domain; polyGT or Ulight-JAK1 peptide assay
T2 construct: catalytic domain, amino acids 866-1154; catalog number PV4774; purchased Invitrogen PV4774
T2 sequence (P23458 866-1154): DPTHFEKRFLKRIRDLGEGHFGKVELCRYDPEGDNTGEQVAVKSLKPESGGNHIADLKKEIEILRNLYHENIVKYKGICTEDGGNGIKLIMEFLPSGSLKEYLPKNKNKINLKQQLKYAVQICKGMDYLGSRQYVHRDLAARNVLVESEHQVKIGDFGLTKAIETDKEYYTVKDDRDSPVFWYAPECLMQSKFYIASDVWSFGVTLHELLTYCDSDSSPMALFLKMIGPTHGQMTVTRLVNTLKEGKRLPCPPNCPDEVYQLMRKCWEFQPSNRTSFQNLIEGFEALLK
Summary of the method: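 Two formats. PolyGT radiometric: 45 min at 30 °C, stopped with phosphoric acid, counted as cpm. Ulight-JAK1 peptide: 60 min at room temperature, stopped with Eu-anti-phosphotyrosine/EDTA, read as RFU. Percent inhibition normalised to vehicle and 10 μM staurosporine.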

IC50 [1] [nM]	IC50 [2] [nM]	Compound
> 1000	101 to 500	Cc1cc(OCc2ccccc2)ccc1N(C)c1cc2c(cn1)ncn2C [Compound 53, N-(4-(benzyloxy)-2-methylphenyl)-N,1-dimethyl-1H-imidazo[4,5-c]pyridin-6-amine]
> 1000	501 to 1000	Cc1cc(OCc2ccc(Cl)cc2)ccc1N(C)c1cc2c(cn1)ncn2C [Compound 54, N-(4-(4-chlorobenzyloxy)-2-methylphenyl)-N,1-dimethyl-1H-imidazo[4,5-c]pyridin-6-amine]
> 1000	> 1000	Cc1ccc(OCCN2CCCC2)cc1N(C)c1cc2c(cn1)ncn2C [Compound 58, N,1-dimethyl-N-(2-methyl-5-(2-(pyrrolidin-1-yl)ethoxy)phenyl)-1H-imidazo[4,5-c]pyridin-6-amine]
> 1000	101 to 500	Cc1ccc(OCC(=O)N(C)C)cc1N(C)c1cc2c(cn1)ncn2C [Compound 59, N,N-dimethyl-2-(4-methyl-3-(methyl(1-methyl-1H-imidazo[4,5-c]pyridin-6-yl)amino)phenoxy)acetamide]
> 1000	> 1000	Cc1c(OCC(=O)N(C)C)cccc1N(C)c1cc2c(cn1)ncn2C [Compound 65, N,N-dimethyl-2-(2-methyl-3-(methyl(1-methyl-1H-imidazo[4,5-c]pyridin-6-yl)amino)phenoxy)acetamide]
> 1000	101 to 500	Cc1c(OCCCC#N)cccc1N(C)c1cc2c(cn1)ncn2C [Compound 66, 4-(2-methyl-3-(methyl(1-methyl-1H-imidazo[4,5-c]pyridin-6-yl)amino)phenoxy)butane nitrile]
> 1000	101 to 500	Cc1c(OCc2cccnc2)cccc1N(C)c1cc2c(cn1)ncn2C [Compound 69, N,1-dimethyl-N-(2-methyl-3-(pyridin-3-ylmethoxy)phenyl)-1H-imidazo[4,5-c]pyridin-6-amine]
> 1000	501 to 1000	COc1ccc(Cc2ccc(N(C)c3cc4c(cn3)ncn4C)c(C)c2)cc1 [Compound 74, N-(4-(4-methoxybenzyl)-2-methylphenyl)-N,1-dimethyl-1H-imidazo[4,5-c]pyridin-6-amine]
501 to 1000	501 to 1000	Cc1c(OCc2ccccc2)cccc1N(C)c1cc2c(cn1)ncn2C [Compound 75, N-(3-(benzyloxy)-2-methylphenyl)-N,1-dimethyl-1H-imidazo[4,5-c]pyridin-6-amine]
> 1000	> 1000	Cc1c(OCc2ccc(Cl)cc2)cccc1N(C)c1cc2c(cn1)ncn2C [Compound 76]
> 1000	> 1000	Cc1c(OCCN2CCCC2)cccc1N(C)c1cc2c(cn1)ncn2C [Compound 77, N,1-dimethyl-N-(2-methyl-3-(2-(pyrrolidin-1-yl)ethoxy)phenyl)-1H-imidazo[4,5-c]pyridin-6-amine]
> 1000	101 to 500	CCc1ccncc1N(C)c1cc2c(cn1)ncn2C [Compound 78, N-(4-ethylpyridin-3-yl)-N,1-dimethyl-1H-imidazo[4,5-c]pyridin-6-amine]
> 1000	> 1000	CCc1ncccc1N(C)c1cc2c(cn1)ncn2C [Compound 79, N-(2-ethylpyridin-3-yl)-N,1-dimethyl-1H-imidazo[4,5-c]pyridin-6-amine]
> 1000	101 to 500	CCc1ccc(C(=O)N(C)C)cc1N(C)c1cc2c(cn1)ncn2C [Compound 87, 4-Ethyl-N,N-dimethyl-3-(methyl(1-methyl-1H-imidazo[4,5-c]pyridin-6-yl)amino)benzamide]
> 1000	101 to 500	Cc1cc(Oc2ccc(C#N)nc2)ccc1N(C)c1cc2c(cn1)ncn2C [Compound 88, 5-(3-methyl-4-(methyl(1-methyl-1H-imidazo[4,5-c]pyridin-6-yl)amino)phenoxy)picolino-nitrile]
> 1000	101 to 500	Cc1c(Oc2ccc(C#N)nc2)cccc1N(C)c1cc2c(cn1)ncn2C [Compound 90, 5-(2-methyl-3-(methyl(1-methyl-1H-imidazo[4,5-c]pyridin-6-yl)amino)phenoxy)picolino-nitrile]
> 1000	> 1000	CCc1c(C(=O)OC)cccc1N(C)c1cc2c(cn1)ncn2C [Compound 96, methyl 2-ethyl-3-(methyl(1-methyl-1H-imidazo[4,5-c]pyridin-6-yl)amino)benzate]
> 1000	101 to 500	Cc1c(OCc2ccc(C#N)nc2)cccc1N(C)c1cc2c(cn1)ncn2C [Compound 97, 5-((2-methyl-3-(methyl(1-methyl-1H-imidazo[4,5-c]pyridin-6-yl)amino)phenoxy)methyl) picolinonitrile]
> 1000	101 to 500	CCc1cc(C(=O)NCCc2ccccc2)ccc1N(C)c1cc2c(cn1)ncn2C [Compound 99, 3-ethyl-4-(methyl(1-methyl-1H-imidazo[4,5-c]pyridin-6-yl)amino)-N-phenethylbenzamide]
> 1000	501 to 1000	CCc1cc(C(=O)N2CCN(C)CC2)ccc1N(C)c1cc2c(cn1)ncn2C [Compound 100, (3-ethyl-4-(methyl(1-methyl-1H-imidazo[4,5-c]pyridin-6-yl)amino)phenyl)(4-methylpiperazin-1-yl)methanone]
> 1000	> 1000	CCc1cc(C(=O)N2CCS(=O)(=O)CC2)ccc1N(C)c1cc2c(cn1)ncn2C [Compound 104, (1,1-Dioxothiomorpholin-4-yl)-{3-ethyl-4-[methyl-(1-methyl-1H-imidazo[4,5-c]pyridin-6-yl)-amino]-phenyl}-methanone]
> 1000	> 1000	CCc1cc(C(=O)N2CCC(N(C)C)C2)ccc1N(C)c1cc2c(cn1)ncn2C (stereo not shown) [Compound 106, (3-(dimethylamino)pyrrolidin-1-yl)(3-ethyl-4-(methyl(1-methyl-1H-imidazo[4,5-c]pyridin-6-yl)amino)phenyl)methanone]
> 1000	101 to 500	CCc1ccc(C(N)=O)cc1N(C)c1cc2c(cn1)ncn2C [Compound 108, 4-ethyl-3-(methyl(1-methyl-1H-imidazo[4,5-c]pyridin-6-yl)amino)benzamide]
> 1000	101 to 500	CCc1ccc(CO)cc1N(C)c1cc2c(cn1)ncn2C [Compound 109, (4-Ethyl-3-(methyl(1-methyl-1H-imidazo[4,5-c]pyridin-6-yl)amino)phenyl)MeOH]
> 1000	> 1000	CCc1cc(C(=O)N2CCC(OC)CC2)ccc1N(C)c1cc2c(cn1)ncn2C [Compound 112, (3-ethyl-4-(methyl(1-methyl-1H-imidazo[4,5-c]pyridin-6-yl)amino)phenyl)(4-methoxypiperidin-1-yl)methanone]
> 1000	> 1000	CCc1cc(C(=O)N2CC(C)(C)C2)ccc1N(C)c1cc2c(cn1)ncn2C [Compound 113, (3,3-dimethylazetidin-1-yl)(3-ethyl-4-(methyl(1-methyl-1H-imidazo[4,5-c]pyridin-6-yl)amino)phenyl)methanone]
> 1000	101 to 500	CCc1ccc(C(=O)NCCOC)cc1N(C)c1cc2c(cn1)ncn2C [Compound 116, 4-Ethyl-N-(2-methoxyethyl)-3-(methyl(1-methyl-1H-imidazo[4,5-c]pyridin-6-yl)amino)benzamide]
> 1000	101 to 500	CCc1cc(C(=O)N2CCOCC2)ccc1N(C)c1cc2c(cn1)ncn2C [Compound 117, (3-ethyl-4-(methyl(1-methyl-1H-imidazo[4,5-c]pyridin-6-yl)amino)phenyl)(morpho-lino)methanone]

Compound	IC50 [1] [nM]	IC50 [2] [nM]
Cc1c(OCC(C)C)cccc1N(C)c1cc2c(cn1)ncn2C [Compound 70, N-(3-isobutoxy-2-methylphenyl)-N,1-dimethyl-1H-imidazo[4,5-c]pyridin-6-amine]	501 to 1000	101 to 500
